The test system of test [1] is CRM1-mediated nuclear export of HDAC7-FLAG. The experiment in a line: Subcellular localization of HDAC7-FLAG in transfected cells by indirect immunofluorescence. The class given is cell-based. The procedure: Immunofluorescence and Confocal Microscopy—Cells were plated onto glass coverslips and transfected the following day with Lipofectamine 2000 (Life Technologies) according to the manufacturer's instructions. After incubation overnight, transfected cells were fixed with 1% paraformaldehyde, permeabilized with phosphate buffered saline (PBS), pH 7.2 and 0.5% Triton X-100 and then incubated for 60 min at room temperature with the appropriate antibodies at dilutions typically between 1:100 and 1:1000. Cells were mounted onto glass slides in PBS/90% glycerol containing 1 mM paraphenylenediamine as an antifade reagent. Confocal microscopy was performed with a Zeiss LSM510 laser scanning confocal microscope at 488 nm (Alexa 488-conjugated secondary antibodies) and 543 nm (Cy3-conjugated secondary antibodies). The pinhole aperture was set to 1.0 airy unit for each channel. Band-pass filters and sequential scanning of individual fluorescent probes were used to eliminate cross talk between channels. Images were collected as 12-bit images, and each channel was independently rescaled from 0 to 255 (8-bit) for final presentation. […]

A further test concerns Nur77. The experiment in a line: Nur77 mRNA expression by northern blot in DO11.10 T-cells. The test is classed as cell-based, mouse. The note with it: DO11.10 cells, 400 nM, various times. The procedure: DO11.10 T cell hybridomas were grown at 37° C., in RPMI 1640 medium supplemented with 10% FBS, 2 mM glutamine and 50 U/ml of streptomycin/penicillin. Transfections were performed by the DEAE-dextran-chlororquine method. The DNA concentration was kept constant in the different samples by using the corresponding empty vector. In some cases, 16 hours after transfection cells were treated with PMA (10 ng/ml) and ionomycin (0.5 μM) for 4 hours and then harvested for reporter assay. All transfections were done in triplicate and are presented as the result of at least 3 independent experiments. Luciferase reporter assays were done with the dual luciferase reporter assay system (Promega) using an EF1α promoter-driven renilla expression vector as an internal control.
The tissue-expression of HDAC7 was analyzed as using a multiple human tissue Northern blot and RNA Master blots obtained from Clontech. Expression of Nur77 upon TSA treatment was assessed as followed. DO11.10 cells were treated with 400 nM of TSA (Sigma) for various times. […] Autoradiographs were analyzed with a FUJIX BAS1000 phosphorus imaging system (Fuji, Tokyo, Japan). Quantification analysis of autoradiographs was performed on a Macintosh computer using the public domain NIH Image 1.62 program (developed at the U.S. National Institute of Health).

A further test has as its system thymocytes. The experiment in a line: Apoptosis in thymocytes expressing dominant negative HDAC7 constructs, commercially available kit. The class given is cell-based. The note with it: construct expressed in thymocytes. The procedure:
Constructs encoding dominant negative mutants of HDAC7 were generated. These constructs direct expression of either the amino terminal domain (amino acids 1-437) or the carboxyl terminal domain (amino acids 438-915) of HDAC7 in mammalian cells. These construct were individually introduced into thymocytes. Apoptosis was measured using a commercially available kit.

This is an account of results in US7745173B2, “Histone deacetylase and methods of use thereof” (The J. David Gladstone Institutes, priority 2001, dated 2010).

As for `CCC(=C/[C@H](C)C/C=C/C(C)=C/[C@@H](C)C(=O)[C@@H](C)[C@H](O)[C@@H](C)C/C(C)=C/C(=O)O)/C=C/[C@@H]1OC(=O)C=C[C@@H]1C` [leptomycin B], in test [1], the “Subcellular localization of HDAC7-FLAG” value is “nuclear localization of HDAC7-FLAG in most transfected cells”. `CC(/C=C/C(=O)NO)=C\[C@@H](C)C(=O)c1ccc(N(C)C)cc1` [trichostatin A]: in the test with Nur77, the “Nur77 mRNA expression” value is given as “induced in a time dependent manner”.

B1: carboxyl terminal domain (amino acids 438-915): dominant negative mutant of HDAC7: carboxyl terminal domain, amino acids 438-915, expressed from a construct (protein, UniProt Q8WUI4 438-915, looked up, fragment)
chain: GPAPLQQHPQVLLWEQQRLAGRLPRGSTGDTVLLPLAQGGHRPLSRAQSSPAAPASLSAPEPASQARVLSSSETPARTLPFTTGLIYDSVMLKHQCSCGDNSRHPEHAGRIQSIWSRLQERGLRSQCECLRGRKASLEELQSVHSERHVLLYGTNPLSRLKLDNGKLAGLLAQRMFVMLPCGGVGVDTDTIWNELHSSNAARWAAGSVTDLAFKVASRELKNGFAVVRPPGHHADHSTAMGFCFFNSVAIACRQLQQQSKASKILIVDWDVHHGNGTQQTFYQDPSVLYISLHRHDDGNFFPGSGAVDEVGAGSGEGFNVNVAWAGGLDPPMGDPEYLAAFRIVVMPIAREFSPDLVLVSAGFDAAEGHPAPLGGYHVSAKCFGYMTQQLMNLAGGAVVLALEGGHDLTAICDASEACVAALLGNRVDPLSEEGWKQKPNLNAIRSLEAVIRVHSKYWGCMQRLASCPDSWVPRVPGA
With B1, in the test on thymocytes, the Apoptosis in thymocytes result is “strongly induces apoptosis”.

B2: amino terminal domain (amino acids 1-437): dominant negative mutant of HDAC7: amino terminal domain, amino acids 1-437, expressed from a construct (protein, UniProt Q8WUI4 1-437, looked up, fragment)
chain: MDLRVGQRPPVEPPPEPTLLALQRPQRLHHHLFLAGLQQQRSVEPMRLSMDTPMPELQVGPQEQELRQLLHKDKSKRSAVASSVVKQKLAEVILKKQQAALERTVHPNSPGIPYRTLEPLETEGATRSMLSSFLPPVPSLPSDPPEHFPLRKTVSEPNLKLRYKPKKSLERRKNPLLRKESAPPSLRRRPAETLGDSSPSSSSTPASGCSSPNDSEHGPNPILGSEALLGQRLRLQETSVAPFALPTVSLLPAITLGLPAPARADSDRRTHPTLGPRGPILGSPHTPLFLPHGLEPEAGGTLPSRLQPILLLDPSGSHAPLLTVPGLGPLPFHFAQSLMTTERLSGSGLHWPLSRTRSEPLPPSATAPPPPGPMQPRLEQLKTHVQVIKRSAKPSEKPRLRQIPSAEDLETDGGGPGQVVDDGLEHRELGHGQPEAR
On to B2, for which the Apoptosis in thymocytes entry in the test on thymocytes is “strongly induces apoptosis”.
